The values below come from patent US10519151B2, “Substituted [1,2,4]triazolo[4,3-A]pyridines, their preparation and their use as pharmaceuticals” (NEOMED Institute, priority 2016, dated 2019).

pIC50: −log10 of the molar value.

This test has as its system human C-Myc gene transcription in MV-4-11 cells. The experiment in a line: Transcription of human C-Myc in human leukemic MV-4-11 cells (QuantiGene 2.0 assay). Format: cell-based. As to conditions: MV4-11, 4 hours treatment, C-Myc mRNA by QuantiGene 2.0, read-out: IC50 (inhibition of C-Myc transcription). How it is done:
Transcription of Human C-Myc in Human Leukemic MV-4-11 Cells
The effect of compounds on transcription of human C-Myc gene is monitored in human B-myelomonocytic leukemia cell line MV-4-11 (from American Type Culture Collection (ATCC), Manassas, Va., USA) using QuantiGene 2.0 assay kit (Affymetrix, Santa Clara, Calif., USA).
Typically, 8,000 MV-4-11 cells are plated in sterile 96-well plates (Costar #3598 from Fisher Scientific Canada, Ottawa, Ontario, Canada) in Iscove's medium supplemented with 10% fetal bovine serum, glutamine (2 mM), and penicillin (100 I.U.) and streptomycin (100 μg/mL) (all from Wisent Inc., St. Bruno, Quebec, Canada). Compounds are dissolved in DMSO at 30 mM. A series of 1:3 dilutions are first made in DMSO, and further […] dilutions are made in serum-containing cell culture media. The final concentration of DMSO is 0.1% in cell culture media. After cells are treated with various concentrations of test compound for 4 hours, cells are lysed using Quantigene 2.0 sample processing kit (#QS0100). C-Myc mRNA is detected using a QuantiGene 2.0 assay kit (#QS0009) with gene-specific probe to human C-Myc (#SA-50182) following the manufacturer's recommendations. Luminescence signals are read on Flexstation II microplate reader (Molecular Devices, Sunnyvale, Calif., USA).
Take `Cc1cccc(C2(c3nnc4ccc(-c5cc(C)c(=O)n(C)c5)cn34)CC2)c1` [Compound 19, 1,3-dimethyl-5-[3-[1-(m-tolyl)cyclopropyl]-[1,2,4]triazolo[4,3-a]pyridin-6-yl]pyridin-2-one]: the pIC50 is 7.06.

Regarding `Cc1cc(-c2ccc3nnc(C4(c5cccc(F)c5)CC4)n3c2)cn(C)c1=O` [Compound 21, 5-[3-[1-(3-fluorophenyl)cyclopropyl]-[1,2,4]triazolo[4,3-a]pyridin-6-yl]-1,3-dimethyl-pyridin-2-one], the pIC50 was 6.80. With `Cc1cc(-c2ccc3nnc(Cc4cc(F)cc(F)c4)n3c2)cn(C)c1=O` [Compound 9, 5-[3-[(3,5-difluorophenyl)methyl]-[1,2,4]triazolo[4,3-a]pyridin-6-yl]-1,3-dimethyl-pyridin-2-one] the figure was 6.74; with `Cc1cc(-c2ccc3nnc(C4(c5ccccc5)CCCCC4)n3c2)cn(C)c1=O` [Compound 25, 1,3-dimethyl-5-[3-(1-phenylcyclohexyl)-[1,2,4]triazolo[4,3-a]pyridin-6-yl]pyridin-2-one], 7.27; with `Cc1cc(-c2ccc3nnc(C(C)(C)c4ccccc4)n3c2)cn(C)c1=O` [Compound 27, 1,3-dimethyl-5-[3-(1-methyl-1-phenyl-ethyl)-[1,2,4]triazolo[4,3-a]-pyridin-6-yl]pyridin-2-one], 6.64. Take `Cc1cc(-c2ccc3nnc(C4(c5ccc(Cl)cc5)CCC4)n3c2)cn(C)c1=O` [Compound 18, 5-[3-[1-(4-chlorophenyl)cyclobutyl]-[1,2,4]triazolo[4,3-a]pyridin-6-yl]-1,3-dimethyl-pyridin-2-one]: the pIC50 is 6.25. The same measure for `Cc1cc(-c2ccc3nnc(Cc4cccc(F)c4)n3c2)cn(C)c1=O` [Compound 13, 5-[3-[(3-fluorophenyl)methyl]-[1,2,4]triazolo[4,3-a]pyridin-6-yl]-1,3-dimethyl-pyridin-2-one]: 6.57. For the molecule `Cc1cc(-c2ccc3nnc(C4(c5ccccc5)CCCC4)n3c2)cn(C)c1=O` [Compound 23, 1,3-dimethyl-5-[3-(1-phenylcyclopentyl)-[1,2,4]triazolo[4,3-a]pyridin-6-yl]pyridin-2-one], the pIC50 is 7.07. Regarding `Cc1cc(-c2ccc3nnc(C4(c5ccc(Cl)cc5)CC4)n3c2)cn(C)c1=O` [Compound 15, 5-[3-[1-(4-chlorophenyl)cyclopropyl]-[1,2,4]triazolo[4,3-a]pyridin-6-yl]-1,3-dimethyl-pyridin-2-one], the pIC50 was 6.60.

With `Cc1cc(-c2ccc3nnc(Cc4ccccc4)n3c2)cn(C)c1=O` [Compound 1, 5-(3-benzyl-[1,2,4]triazolo[4,3-a]pyridin-6-yl)-1,3-dimethyl-pyridin-2-one], the pIC50 is 6.60. Take `Cc1cc(-c2ccc3nnc(Cc4ccc(C(F)(F)F)cc4)n3c2)cn(C)c1=O` [Compound 10, 1,3-dimethyl-5-[3-[[4-(trifluoromethyl)phenyl]methyl][1,2,4]triazolo[4,3-a]pyridin-6-yl]pyridin-2-one]: the pIC50 was 6.32. Consider `Cc1ccc(C2(c3nnc4ccc(-c5cc(C)c(=O)n(C)c5)cn34)CC2)cc1` [Compound 16, 1,3-dimethyl-5-[3-[1-(p-tolyl)cyclopropyl]-[1,2,4]triazolo[4,3-a]pyridin-6-yl]pyridin-2-one], for which the pIC50 was 6.65.

For `Cc1cc(-c2ccc3nnc([C@@H](C)c4ccccc4)n3c2)cn(C)c1=O` [Compound 7, 1,3-dimethyl-5-[3-[(1 S)-1-phenylethyl]-[1,2,4]triazolo[4,3-a]pyridin-6-yl]pyridin-2-one], the pIC50 is 7.07. Turning to `Cc1cc(-c2ccc3nnc(C(C)(C)c4ccc(Cl)cc4)n3c2)cn(C)c1=O` [Compound 17, 5-[3-[1-(4-chlorophenyl)-1-methyl-ethyl]-[1,2,4]triazolo[4,3-a]pyridin-6-yl]-1,3-dimethyl-pyridin-2-one], the pIC50 was 6.23. `Cc1cc(-c2ccc3nnc(Cc4cccc(C(F)(F)F)c4)n3c2)cn(C)c1=O` [Compound 5, 1,3-dimethyl-5-[3-[[3-(trifluoromethyl)phenyl]methyl]-[1,2,4]triazolo[4,3-a]pyridin-6-yl]pyridin-2-one]: the pIC50 is 6.84. As to `Cc1cc(-c2ccc3nnc(C4(c5ccccc5)CC4)n3c2)cn(C)c1=O` [Compound 11, 1,3-dimethyl-5-[3-(1-phenylcyclopropyl)-[1,2,4]triazolo[4,3-a]pyridin-6-yl]pyridin-2-one], the pIC50 is 7.05.

For `Cc1cc(-c2ccc3nnc(CCc4ccccc4)n3c2)cn(C)c1=O` [Compound 26, 1,3-dimethyl-5-[3-(2-phenylethyl)-[1,2,4]triazolo[4,3-a]pyridin-6-yl]pyridin-2-one], the negative logarithm of the IC50 (pIC50) is 6.08. The same measure for `Cc1cc(-c2ccc3nnc(CC4CCCCC4)n3c2)cn(C)c1=O` [Compound 8, 5-[3-(cyclohexylmethyl)-[1,2,4]triazolo[4,3-a]pyridin-6-yl]-1,3-dimethyl-pyridin-2-one]: 6.80; for `Cc1cc(-c2ccc3nnc(C4(c5cccc(Cl)c5)CC4)n3c2)cn(C)c1=O` [Compound 14, 5-[3-[1-(3-chlorophenyl)cyclopropyl]-[1,2,4]triazolo[4,3-a]pyridin-6-yl]-1,3-dimethyl-pyridin-2-one]: 7.05; for `Cc1cc(-c2ccc3nnc([C@H](C)c4ccccc4)n3c2)cn(C)c1=O` [Compound 12, 1,3-dimethyl-5-[3-[(1R)-1-phenylethyl]-[1,2,4]triazolo[4,3-a]pyridin-6-yl]pyridin-2-one]: 7.00. The same measure for `Cc1cc(-c2ccc3nnc(Cc4ccc(F)cc4)n3c2)cn(C)c1=O` [Compound 3, 5-[3-[(4-fluorophenyl)methyl]-[1,2,4]triazolo[4,3-a]pyridin-6-yl]-1,3-dimethyl-pyridin-2-one]: 6.31; for `Cc1cc(-c2ccc3nnc(Cc4ccc(Cl)cc4)n3c2)cn(C)c1=O` [Compound 4, 5-[3-[(4-chlorophenyl)methyl]-[1,2,4]triazolo[4,3-a]pyridin-6-yl]-1,3-dimethyl-pyridin-2-one]: 6.81; for `Cc1cc(-c2ccc3nnc(CC4CCOCC4)n3c2)cn(C)c1=O` [Compound 2]: 5.63. The same measure for `Cc1cc(-c2ccc3nnc(C4(c5cccc(C(F)(F)F)c5)CC4)n3c2)cn(C)c1=O` [Compound 20, 1,3-dimethyl-5-[3-[1-[3-(trifluoromethyl)phenyl]cyclopropyl][1,2,4]-triazolo[4,3-a]pyridin-6-yl]pyridin-2-one]: 7.21; for `Cc1cc(-c2ccc3nnc(Cc4ccccc4F)n3c2)cn(C)c1=O` [Compound 6, 5-[3-[(2-fluorophenyl)methyl]-[1,2,4]triazolo[4,3-a]pyridin-6-yl]-1,3-dimethyl-pyridin-2-one]: 6.34; for `Cc1cc(-c2ccc3nnc(C4(c5ccccc5)CCC4)n3c2)cn(C)c1=O` [Compound 22, 1,3-dimethyl-5-[3-(1-phenylcyclobutyl)-[1,2,4]triazolo[4,3-a]pyridin-6-yl]pyridin-2-one]: 7.13. In the case of `Cc1cc(-c2ccc3nnc(C(C)(C)c4cccc(Cl)c4)n3c2)cn(C)c1=O` [Compound 24, 5-[3-[1-(3-chlorophenyl)-1-methyl-ethyl]-[1,2,4]triazolo[4,3-a]pyridin-6-yl]-1,3-dimethyl-pyridin-2-one], the pIC50 is 7.05.

The term pIC50 denotes −log10 of the IC50, conventionally taken in molar units.
